Experimental data from PMC11173529, “Structure–Activity Relationship Studies in a Series of Xanthine Inhibitors of SLACK Potassium Channels” (Molecules, 2024).
Read-outs that look alike come from different tables or passages of the source. Each block holds one molecule with its values, some of them ahead of it.

Tests used:
WT hSLACK = target: T1, WT hSLACK (Homo sapiens, UniProt Q5JUK3); test: Whole-cell automated patch-clamp (APC) in CHO cells stably expressing WT hSLACK; assay type: cell-based; conditions: for SLACK Imax: maximum inhibition at 30 µM test compound standardized to VU0606170 (set at 100%), WT hSLACK; for IC50: whole-cell APC, CHO cells stably expressing WT hSLACK, averages n ≥ 3, read-out: SLACK IC50
T1 construct: host or cells: CHO-K1
T1 sequence (Q5JUK3 1-1235 isoform Q5JUK3-3): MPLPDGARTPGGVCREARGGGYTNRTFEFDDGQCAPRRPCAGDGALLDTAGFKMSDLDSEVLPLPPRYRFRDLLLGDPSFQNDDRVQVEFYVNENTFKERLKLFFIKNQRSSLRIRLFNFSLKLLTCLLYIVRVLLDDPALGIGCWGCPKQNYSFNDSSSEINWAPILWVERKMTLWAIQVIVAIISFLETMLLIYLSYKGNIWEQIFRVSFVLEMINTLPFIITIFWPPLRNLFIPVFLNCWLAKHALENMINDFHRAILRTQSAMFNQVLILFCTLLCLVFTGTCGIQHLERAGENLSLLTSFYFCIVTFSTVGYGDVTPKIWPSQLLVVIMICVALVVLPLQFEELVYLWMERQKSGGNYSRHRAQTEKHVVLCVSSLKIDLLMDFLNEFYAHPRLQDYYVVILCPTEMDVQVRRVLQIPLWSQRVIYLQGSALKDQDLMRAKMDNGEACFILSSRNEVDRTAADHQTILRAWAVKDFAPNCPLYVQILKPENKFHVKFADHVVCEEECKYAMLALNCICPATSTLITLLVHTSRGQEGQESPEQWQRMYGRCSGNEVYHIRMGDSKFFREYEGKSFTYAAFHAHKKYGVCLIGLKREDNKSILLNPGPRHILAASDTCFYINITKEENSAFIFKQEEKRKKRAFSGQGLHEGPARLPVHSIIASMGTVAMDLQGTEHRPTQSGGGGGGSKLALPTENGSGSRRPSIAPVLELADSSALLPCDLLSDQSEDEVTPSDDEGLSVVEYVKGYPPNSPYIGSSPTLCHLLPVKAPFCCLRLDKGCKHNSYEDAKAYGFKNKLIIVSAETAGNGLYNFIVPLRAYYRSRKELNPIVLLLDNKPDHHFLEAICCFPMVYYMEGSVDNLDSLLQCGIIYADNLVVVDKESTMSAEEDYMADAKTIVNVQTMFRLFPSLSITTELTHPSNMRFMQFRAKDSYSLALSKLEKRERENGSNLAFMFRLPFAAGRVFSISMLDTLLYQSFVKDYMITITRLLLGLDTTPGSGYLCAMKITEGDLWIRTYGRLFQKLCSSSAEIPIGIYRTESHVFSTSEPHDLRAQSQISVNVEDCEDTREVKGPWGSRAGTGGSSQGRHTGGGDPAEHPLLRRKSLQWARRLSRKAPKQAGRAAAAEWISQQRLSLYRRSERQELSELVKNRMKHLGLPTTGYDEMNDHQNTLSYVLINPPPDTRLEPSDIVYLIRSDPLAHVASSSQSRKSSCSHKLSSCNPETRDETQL
Method: All new analogs were tested in our APC assay using CHO cells stably expressing WT SLACK using a concentration-response format with concentrations ranging from 0.125 to 30 μM in half-log steps and a minimum of three cells (replicates) per concentration series. […] Still, there were some notable results. For example, substitution at the 4-position was largely unfavorable regardless of the nature of the substituent (21, 24, 27, 30, and 33) apart from the 4-fluoro analog 18. […] As the trifluoromethyl group is similar in electronegativity to chlorine, but larger than both methyl and chlorine, perhaps the steric bulk of the trifluoromethyl is to blame for the poor potency of these analogs. With the exception of the fluoro (16–18) and cyano (28–30) analogs, substitution at the 3-position was favorable for SLACK activity, with 3-methoxy analog 32 standing out in this set.
Stably transfected monoclonal HEK293 cell lines expressing Slick, Maxi-K α1/β3, Maxi-K α1/β4, CaV3.2, GIRK 1/2, KV2.1, KV7.2, NaV1.7, and TASK-1 were generated as previously described. Stably transfected monoclonal HEK293 cell lines expressing hERG were generated as previously described. CHO-K1 cells expressing human Slack and disease-associated human Slack mutations, G288S and A934T, were generated by transfecting a PiggyBac TRE mammalian expression vector (VectorBuilder, Chicago, IL, USA) containing KCNT1. FuGENE 6 (Promega, Madison, WI, USA) transfection reagent and protocol, together with Opti-MEM (Thermo Fisher Scientific, Walkham, MA, USA), were utilized.
Automated patch-clamp recording was performed with a SyncroPatch 768 PE system (Nanion, Munich, Germany) as previously described. Whole-cell recordings were performed at room temperature. Cells were harvested by first washing with PBS without Mg^2+ or Ca^2+ (Gibco, Billings, MT, USA) to remove cell culture media, followed by dissociation with TryPLE (Gibco, Billings, MT, USA). Cells were then resuspended and diluted to 100,000 cells/mL in external solution. External solution contained 105 mM NaCl, 4 mM KCl, 1 mM MgCl2, 5 mM CaCl2, 10 mM HEPES, and 40 mM N-Methyl-D-glucamine chloride, titrated to pH of 7.4 and osmolarity of 300 mOsm/kg; internal solution contained 70 mM NaCl, 70 mM KF, 10 mM KCl, 5 mM EGTA, and 5 mM HEPES, titrated to a pH of 7.2 and osmolarity of 295 mOsm/kg.
The APC protocol was set as follows: Cells were held at a […] of −80 mV for 100 ms, then a ramp protocol was performed from −100 mV to 80 mV at 0.4 mV/ms, followed by holding the cell at −80 mV for another 100 ms, then steps were performed at −20 mV, 0 mV, +20 mV, +40 mV, and +60 mV for 100 ms of each step. Whole-cell currents were measured at 0 mV and normalized to current after external buffer addition. […] To obtain the concentration-response relationship graphs and IC50 values, we take the median value of the last 7 current amplitude values obtained for each set of data points collected for a given concentration at a particular step.

WT SLACK [1] = system: WT SLACK; parameters: method as in PMID 32408169; conditions: whole-cell patch-clamp electrophysiology; read-out: IC50 versus WT SLACK; cited from earlier work
hERG (KV11.1) channels = system: hERG (KV11.1) channels; parameters: method as in PMID 32408169; conditions: at 10 µM; cited from earlier work
SLACK = system: SLACK; parameters: method as in PMID 33859800; conditions: whole-cell patch-clamp electrophysiology; read-out: IC50 versus WT SLACK; cited from earlier work
GABAA Cl– channels = system: GABAA Cl– channels; parameters: method as in PMID 33859800; conditions: binding displacement assay; cited from earlier work
Kcnt1^L/L mice = system: Kcnt1^L/L mice; parameters: method as in PMID 36173683; conditions: mouse model using Kcnt1 L/L mice; cited from earlier work
WT SLACK [2] = system: WT SLACK; parameters: method as in earlier work; conditions: APC assay; read-out: IC50 versus WT SLACK; cited from earlier work
WT SLACK [3] = system: WT SLACK; parameters: method as in PMID 33143429; conditions: whole-cell APC, HEK-293 cells; read-out: IC50 versus WT SLACK; cited from earlier work
hERG channel = system: hERG channel; parameters: method as in PMID 33143429; conditions: Tl+-flux assay; cited from earlier work
[4] = system: co-cultures of cortical neuronal and glial cells; parameters: method as in PMID 33143429; conditions: cited from earlier work
WT SLACK [5] = system: WT SLACK; parameters: method as in PMID 37812884; conditions: whole-cell APC, CHO cells stably expressing WT SLACK; read-out: IC50 versus WT SLACK; cited from earlier work
A934T SLACK = system: A934T SLACK; parameters: method as in PMID 37812884; conditions: Tl+-flux assay; read-out: IC50 versus A934T SLACK; cited from earlier work
[6] = parameters: method as in PMID 37812884; conditions: cited from earlier work

Compound: Cn1c(N(Cc2ccccc2)Cc2ccccc2)nc2c1c(=O)n(Cc1ccccc1)c(=O)n2C [Analog 72]
SLACK Imax (WT hSLACK): 100%
IC50 (WT hSLACK): 1400 nM

Compound: Cc1cccc(CC(=O)Nc2cnn(-c3cccc(C(=O)NCc4ccccc4-n4cncn4)c3)c2)c1 [Compound 1]
IC50 (WT SLACK [1]): 3200 nM
hERG (KV11.1) inhibition (hERG (KV11.1) channels): almost completely inhibited

Compound: O=C(Nc1cccc(C(F)(F)F)c1)c1ccc2nc(N3C(=O)c4ccccc4C3=O)sc2c1 [Compound 2]
IC50 (WT SLACK [1]): 3000 nM
hERG (KV11.1) inhibition (hERG (KV11.1) channels): 10–20%

Compound: O=C(Nc1cccc(C(F)(F)F)c1)c1ccc(CSc2nnnn2-c2ccccc2)cc1 [Compound 3]
IC50 (WT SLACK [1]): 1600 nM
hERG (KV11.1) inhibition (hERG (KV11.1) channels): 45%

Compound: C[C@H](NC(=O)c1cc(C(F)(F)F)nn1C)c1nc(-c2ccnc(C(F)(F)F)c2)no1 [Compound 4]
IC50 (SLACK): 40 nM
displacement at GABAA Cl– channels (GABAA Cl– channels): 74%
anticonvulsant effects (Kcnt1^L/L mice): demonstrated anticonvulsant effects

Compound: O=C(N[C@@H]1CCc2cc(Cl)ccc21)c1ccc(S(=O)(=O)N2CCCC2)s1 [Compound 5]
IC50 (WT SLACK [2]): < 1000 nM

Compound: COc1ccc(Cl)cc1NC(=O)CN1CCN(S(=O)(=O)N2CCC(C)CC2)CC1 [Compound 6]
IC50 (WT SLACK [3]): 1700 nM
IC50 (hERG channel): > 10 µM
frequency of spontaneous calcium oscillations [4]: inhibited the frequency of spontaneous calcium oscillations

Compound: Cc1ccc2cccc(S(=O)(=O)N3CC(c4nc(-c5ccc(F)cc5)no4)C3)c2n1 [Compound 7]
IC50 (WT SLACK [5]): 320 nM
IC50 (A934T SLACK): 670 nM
metabolism in mouse liver microsomes [6]: rapidly metabolized

Now from value to molecule:

SLACK Imax (WT hSLACK): 50%
IC50 (WT hSLACK): > 10000 nM
Compound: C[C@@H](c1ccccc1)N(C)c1nc2c(c(=O)n(Cc3ccccc3)c(=O)n2C)n1C [Analog 66]

SLACK Imax (WT hSLACK): 100%
IC50 (WT hSLACK): 1400 nM
Compound: CCN(Cc1ccccc1)c1nc2c(c(=O)n(Cc3ccccc3)c(=O)n2C)n1C [Analog 67]

SLACK Imax (WT hSLACK): 100%
IC50 (WT hSLACK): 1300 nM
Compound: CCCN(Cc1ccccc1)c1nc2c(c(=O)n(Cc3ccccc3)c(=O)n2C)n1C [Analog 68]

SLACK Imax (WT hSLACK): 100%
IC50 (WT hSLACK): 3400 nM
Compound: CC(C)N(Cc1ccccc1)c1nc2c(c(=O)n(Cc3ccccc3)c(=O)n2C)n1C [Analog 69]

SLACK activity (in words) (WT hSLACK; APC, WT SLACK): inactive
Compound: Cn1c(N2Cc3ccccc3C2)nc2c1c(=O)n(Cc1ccccc1)c(=O)n2C [Analog 74]

SLACK Imax (WT hSLACK): 100%
IC50 (WT hSLACK): 2800 nM
Compound: Cn1c(N2CCc3ccccc3C2)nc2c1c(=O)n(Cc1ccccc1)c(=O)n2C [Analog 75]

SLACK Imax (WT hSLACK): 103%
IC50 (WT hSLACK): 7000 nM
Compound: Cn1c(CCc2ccccc2)nc2c1c(=O)n(Cc1ccccc1)c(=O)n2C [Analog 77]
